Where two headings read alike, the source gives them in different places. No end group written: not given here.
Key:
Test in all cases: biochemical
DRB1*0301 = DRB1*0301 (Homo sapiens, UniProt P01903+P01911, A100K/A102G/A103R/A169T/F55Y/I96L/K41T/L162R/M171V/P40S/Q125H/Q178H/Q39Y/R42S/S66N/T106N/T262R/W38E/Y61H); assay type: binding
DRB3*0101 = DRB3*0101 (Homo sapiens, UniProt P01903+P79483); assay type: binding
DRB1*1201 = DRB1*1201 (Homo sapiens, UniProt P01903+P01911, A100R/A169T/D57E/D86V/F55L/H45Y/K41T/L162R/M171V/P40S/Q125H/Q178H/Q39Y/Q99D/R42G/S66L/T262R/V114A/V67L/W38E/Y59H/Y61H/Y89S); assay type: binding
DRB1*1101 = DRB1*1101 (Homo sapiens, UniProt P01903+P01911, A100R/A169T/A87E/I96F/K41T/L162R/M171V/P40S/Q125H/Q178H/Q39Y/Q99D/R42S/S66Y/T262R/V115G/W38E)
DRB5*0101 = DRB5*0101 (Homo sapiens, UniProt P01903+Q30154)
DR7 (DRB1*0701) = DR7 (DRB1*0701) (Homo sapiens, UniProt P01903+P01911, A100R/A102G/A103Q/D57E/D86V/E43K/F76Y/K127E/L162R/M171V/P40G/Q125H/Q99D/R33Q/R42Y/R54Q/S133A/S66F/T210M/V115G/Y107V/Y59L/Y89S); assay type: binding
DR1 (DRB1*0101) = DR1 (DRB1*0101) (Homo sapiens, UniProt P01903+P01911, A100R/D57E/F55L/F60I/F76Y/I96L/L162R/M171V/P40L/Q125E/R42F/V115G/Y59C); assay type: binding
DRB4*0101 = DRB4*0101 (Homo sapiens, UniProt P01903+P13762, G164S); assay type: binding
DRB1*1302 = DRB1*1302 (Homo sapiens, UniProt P01903+P01911, A100E/A169T/K41T/L162R/M171V/P40S/Q125H/Q178H/Q39Y/Q99D/R42S/S66N/T262R/V115G/W38E/Y61H); assay type: binding
DRB1*1501 = DRB1*1501 (Homo sapiens, UniProt P01903+P01911); assay type: binding
DR4w4 (DRB1*0401) = DR4w4 (DRB1*0401) (Homo sapiens, UniProt P01903+P01911, A100K/A169T/F76Y/I96L/K127E/L162R/M171V/N62H/P40V/Q125Y/R42H/S133A/S149N/S66Y/V115G/V209L/W38E); assay type: binding
DRB1*0405 = DRB1*0405 (Homo sapiens, UniProt P01903+P01911, A100R/A169T/D86S/F76Y/I96L/K127E/L162R/M171V/N62H/P40V/Q125Y/R42H/S133A/S149N/S66Y/V115G/V209L/W38E); assay type: binding
DRB1*0802 = DRB1*0802 (Homo sapiens, UniProt P01903+P01911, A100R/A103L/A169T/F76Y/H45Y/I96F/K41T/L162R/M171V/P40S/Q125H/Q178H/Q39Y/Q99D/R218S/R42G/S66Y/V115G/W38E); assay type: binding
DRB1*0901 = DRB1*0901 (Homo sapiens, UniProt P01903+P01911, A100R/A103E/D57H/D86V/F55Y/F60I/F76Y/I96F/K127E/L162R/M171V/P40D/Q125H/Q99R/R33Q/R42F/S133A/S66N/T210M/V115G/W38K/Y107V/Y59G/Y89S); assay type: binding

DRB1*0301, sequence (P01903 26-254 limits assumed, other chains not shown): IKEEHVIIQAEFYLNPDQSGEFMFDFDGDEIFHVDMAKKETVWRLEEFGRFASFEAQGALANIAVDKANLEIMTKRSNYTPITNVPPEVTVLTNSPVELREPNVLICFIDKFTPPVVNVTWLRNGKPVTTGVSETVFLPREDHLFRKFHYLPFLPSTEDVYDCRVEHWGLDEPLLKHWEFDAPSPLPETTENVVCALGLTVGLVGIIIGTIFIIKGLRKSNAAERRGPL
DRB1*1101, sequence (P01903 26-254 limits assumed, other chains not shown): as above
DRB1*1302, sequence (P01903 26-254 limits assumed, other chains not shown): as above

Compound | IC50 (DRB1*0301) [µM] | IC50 (DRB3*0101) [µM] | IC50 (DRB1*1201) [µM] | IC50 (DRB1*1101; Binding affinity DRB1 *1101) [µM] | IC50 (DRB5*0101; Binding affinity DRB5 *0101) [µM] | IC50 (DR7 (DRB1*0701)) [µM] | IC50 (DR1 (DRB1*0101)) [µM] | IC50 (DRB4*0101) [µM] | IC50 (DRB1*1302) [µM] | IC50 (DRB1*1501) [µM] | IC50 (DR4w4 (DRB1*0401)) [µM] | IC50 (DRB1*0405) [µM] | IC50 (DRB1*0802) [µM] | IC50 (DRB1*0901) [µM] | IC50 (DRB1*1101) [µM] | IC50 (DRB5*0101) [µM]
CC(C)C[C@H](NC(=O)[C@H](Cc1ccccc1)NC(=O)CNC(=O)[C@H](CC(C)C)NC(=O)[C@H](CO)NC(=O)[C@H](CC(C)C)NC(=O)[C@H](CO)NC(=O)[C@H](C)NC(=O)[C@H](C)NC(=O)[C@H](CCCNC(=N)N)NC(=O)[C@H](C)NC(=O)[C@H](CC(C)C)NC(=O)[C@H](CC(C)C)NC(=O)[C@H](CC(C)C)NC(=O)[C@@H]1CCCN1)C(=O)O [Peptide 68.0021] | > 20 | > 20 | 1.51 |  |  |  |  |  |  |  |  |  |  |  |  | 
CC[C@H](C)[C@H](NC(=O)[C@H](Cc1c[nH]c2ccccc12)NC(=O)[C@@H](NC(=O)[C@@H](N)C(C)C)[C@@H](C)O)C(=O)NCC(=O)N[C@@H](C)C(=O)N[C@@H](C)C(=O)N1CCC[C@H]1C(=O)N[C@@H](CC(C)C)C(=O)N[C@H](C(=O)N[C@@H](CC(C)C)C(=O)N[C@@H](CO)C(=O)N[C@@H](CCCNC(=N)N)C(=O)N[C@H](C(=O)N[C@H](C(=O)O)C(C)C)[C@@H](C)CC)[C@@H](C)CC [Peptide 68.0060] | > 20 | > 20 | 0.818 |  |  |  |  |  |  |  |  |  |  |  |  | 
CC(C)C[C@H](NC(=O)[C@@H](NC(=O)[C@H](CCC(N)=O)NC(=O)[C@H](Cc1c[nH]c2ccccc12)NC(=O)[C@@H]1CCCN1C(=O)[C@H](CCC(N)=O)NC(=O)[C@@H](N)CO)C(C)C)C(=O)N[C@H](C(=O)N[C@@H](C)C(=O)N[C@@H](CO)C(=O)N[C@@H](CCCNC(=N)N)C(=O)NCC(=O)N[C@@H](CCCNC(=N)N)C(=O)N[C@@H](C)C(=O)N[C@H](C(=O)O)C(C)C)C(C)C [Peptide 68.0061] | > 20 | > 20 | 8.78 |  |  |  |  |  |  |  |  |  |  |  |  | 
CC(C)C[C@H](NC(=O)[C@@H](NC(=O)CN)C(C)C)C(=O)N[C@H](C(=O)N[C@@H](Cc1c[nH]cn1)C(=O)N1CCC[C@H]1C(=O)N[C@@H](CCC(N)=O)C(=O)N[C@@H](Cc1c[nH]c2ccccc12)C(=O)N[C@H](C(=O)N[C@@H](CC(C)C)C(=O)N[C@H](C(=O)N[C@@H](C)C(=O)N[C@@H](C)C(=O)N[C@@H](Cc1c[nH]cn1)C(=O)N[C@@H](CS)C(=O)O)[C@@H](C)O)C(C)C)C(C)C [Peptide 68.0063] | > 20 | > 20 | 7.49 |  |  |  |  |  |  |  |  |  |  |  |  | 
CC[C@H](C)[C@H](NC(=O)[C@@H](NC(=O)[C@@H]1CCCN1C(=O)CN)C(C)C)C(=O)N1CCC[C@H]1C(=O)N[C@@H](CCC(N)=O)C(=O)N[C@@H](CC(=O)O)C(=O)N[C@@H](Cc1c[nH]c2ccccc12)C(=O)N[C@@H](CO)C(=O)N[C@H](C(=O)N[C@@H](CCC(=O)O)C(=O)N[C@@H](CS)C(=O)N[C@@H](CCSC)C(=O)N[C@H](C(=O)N[C@H](C(=O)O)[C@@H](C)O)[C@@H](C)O)[C@@H](C)O [Peptide 68.0156] | > 20 | > 20 | > 20 |  |  |  |  |  |  |  |  |  |  |  |  | 
CC(C)C[C@H](NC(=O)[C@H](CCC(N)=O)NC(=O)[C@H](CCCCN)NC(=O)[C@@H](NC(=O)[C@H](CC(C)C)NC(=O)[C@H](CCC(N)=O)NC(=O)[C@@H](NC(=O)[C@H](C)NC(=O)[C@H](CO)NC(=O)[C@@H](NC(=O)[C@@H](NC(=O)[C@H](CC(=O)O)NC(=O)[C@H](CC(=O)O)NC(=O)[C@@H](N)CO)[C@@H](C)O)C(C)C)[C@@H](C)O)C(C)C)C(=O)N[C@@H](CCC(N)=O)C(=O)O [Peptide 1601.13] | 10.5 | > 20 |  | 15.6 | > 20 | 7.67 | 7.24 | 0.026 | 16.5 | > 20 | 9.55 | 16.3 | 19.3 |  |  | 
CC[C@H](C)[C@H](NC(=O)CNC(=O)[C@@H](NC(=O)[C@H](CCCCN)NC(=O)[C@H](CCC(=O)O)NC(=O)[C@H](CC(N)=O)NC(=O)CNC(=O)[C@H](C)N)[C@@H](C)O)C(=O)N[C@@H](CC(C)C)C(=O)N[C@H](C(=O)N[C@H](C(=O)N[C@H](C(=O)N[C@@H](Cc1ccc(O)cc1)C(=O)N[C@@H](Cc1c[nH]cn1)C(=O)N[C@@H](CO)C(=O)O)[C@@H](C)O)C(C)C)[C@@H](C)O [Peptide 1601.18] | > 20 | > 20 |  | > 20 | > 20 |  | > 20 | 0.932 | > 20 | 2.81 | 3.99 | 6.75 | > 20 | > 20 |  | 
DSVDSVNCGVISAAA [Peptide 1601.24] | > 20 | > 20 |  | > 20 | > 20 | 2.14 | 0.916 | 8.71 | 0.736 | > 20 | 1.28 | 13.6 | > 20 | 6.73 |  | 
EVFFQRLGIASGRAR [Peptide 68.0115] | > 20 | > 20 | 2.94 |  |  |  |  |  |  |  |  |  |  |  |  | 
GVNHQHLPARRAEPQ [Peptide 1543.05] | > 20 | > 20 |  | > 20 | > 20 | 16.8 | 0.276 | 14.6 | > 20 | > 20 | > 20 | > 20 | > 20 | > 20 |  | 
LKGDANILKCLRYRL [Peptide 1601.26] | 0.052 | 3.19 |  | 5.53 | > 20 | 9.02 | 17.2 | 6.22 | 6.9 | 0.609 | 5.59 | 3.14 |  | > 20 |  | 
LSQRLNVCQDKILEH [Peptide 1601.21] | 0.21 | > 20 |  | > 20 | > 20 | > 20 | > 20 | 5.03 | > 20 | > 20 | > 20 | 4.63 | > 20 | > 20 |  | 
NTTPIIHLKGDKNSL [Peptide 1601.37] | 7.48 | > 20 |  | > 20 | > 20 | 18.8 | 0.86 | 0.075 | 5.44 | 11.4 | 11.9 | > 20 | 1.9 | > 20 |  | 
PCHTTKLLHRDSVDS [Peptide 1601.07] | 7.26 | > 20 |  | 2.96 | > 20 | > 20 | > 20 | 0.672 | > 20 | > 20 | > 20 | > 20 | 2.78 | > 20 |  | 
PTGCLKKHGYTVEVQ [Peptide 1601.23] | > 20 | > 20 |  | > 20 | > 20 | 2.27 | 17.9 | 7.47 | 0.082 |  | 19.8 | > 20 | > 20 | 1.74 |  | 
TTPIIHKLGDRNSLK [Peptide 1601.17] | 0.501 | 11 |  |  |  | > 20 | 0.085 | 0.019 | 1.48 | 0.382 | 0.392 | 19 | 0.419 | > 20 | 4.8 | 5.57

Source: patent US9340577B2, “HLA binding motifs and peptides and their uses” (priority 1992, dated 2016)
